Converted amounts (≈) assume the structure as drawn. “And” between values parts separate entries of the source, which are not always exact repeats. Equal values may be shown once. Read-outs that look alike come from different tables or passages of the source. Marks after values point to notes of the source that are not given here.

Experiment [1] can be described thus: Antifungal assay, mycelium growth on PDA containing the chemical.
Assay in experiment [2]: as above
Conditions: G. trabeum; for Antifungal index (%): Table 1.

Assay in experiment [3]: as above
Conditions: for Antifungal index: 50 μg/ml.

Assay in experiment [4]: as above
Conditions: T. versicolor; for Antifungal index (%): Table 1.

A short description of experiment [5]: MIC and MFC determination on PDA. The following applies: L. sulphureus.
Experiment [6] can be described thus: MIC and MFC determination on PDA. Conditions: L. betulina.
The nature of experiment [7]: Antifungal activity on paper (CNS 2690, TAPPI T487 cm-93). Conditions: A. terreus, 14 days.
Assay in experiment [8]: as above
The following applies: C. globosum, 14 days.

Assay in experiment [9]: as above
The following applies: A. niger, 14 days.

Setting [10] is: L. sulphureus, 100 μg/ml, Table 1.
[11] abbreviates: L. betulina, 100 μg/ml, Table 1.
[12] abbreviates: L. sulphureus, 100 μg/ml, Table 4, mean ± SE (n = 5).
Setting [13] is: L. sulphureus, Table 5, mean ± SE (n = 5), combinations at 1:1 ratio in molarities.
The mark [14] stands for this setting: L. sulphureus, Table 5, mean ± SE (n = 5), combinations at 1:1 ratio in molarities, read-out: IC50.
Setting [15] is: L. sulphureus, single compound at 0.17 mM.
Where [16] appears, read: Example 1, FIG. 1(A), read-out: IC50 (concentration that inhibited 50% of the mycelium growth).
The mark [17] stands for this setting: L. betulina, 100 μg/ml, Table 4, mean ± SE (n = 5).
The mark [18] stands for this setting: L. betulina, Table 5, mean ± SE (n = 5), combinations at 1:1 ratio in molarities.
[19] abbreviates: L. betulina, Table 5, mean ± SE (n = 5), combinations at 1:1 ratio in molarities, read-out: IC50.

Regarding `Cc1cc(C(C)(C)C)c(O)c(C(C)(C)C)c1` [BHT, Butylated hydroxyltoluene, reference compound], the “Antifungal index (%)” value in experiment [1] (setting [10]) was determined as 21 ± 5.6%; in experiment [2] (100 μg/ml), 0 ± 0%; in experiment [3] (setting [11]), 16 ± 3.4%; in experiment [4] (100 μg/ml), 23 ± 2.6%.

Regarding `O=CC=Cc1ccccc1` [Cinnamaldehyde, cinnamaldehyde], the “Antifungal index (%)” value is 100 ± 0% in [1] (setting [10]); 100% and 100 ± 0.0^a % in experiment [1] (setting [12]); 31 ± 0.7% in experiment [2] (100 μg/ml); 100 ± 0% in experiment [3] (setting [11]); 100% and 100 ± 0.0^a % in experiment [3] (setting [17]); 34 ± 2.2% in [4] (100 μg/ml). Further, the IC50 in experiment [1] (L. sulphureus, Example 1, FIG. 1(A), read-out: IC50 (concentration that inhibited 50% of the mycelium growth)) stood at 170 µM; in experiment [1] (setting [14]), 230 µM; in experiment [2] (setting [16]), 1050 µM; in experiment [3] (L. betulina, Example 1, FIG. 1(A), read-out: IC50 (concentration that inhibited 50% of the mycelium growth)) it was 650 µM; in [3] (setting [19]), 650 µM; in experiment [4] (setting [16]), 1110 µM. Also, the IC90 turned out to be 530 ± 20 µM in experiment [1] (setting [13]) and 720 ± 60 µM in [3] (setting [18]). In addition, the Antifungal index is listed as 41% in [1] (setting [15]); 22% in experiment [2] (50 μg/ml, Example 3, FIG. 2(B)); 6% in experiment [3] (L. betulina, Example 3, FIG. 2(A)). The “MFC” value in experiment [5] was 700 µM (≈ 92.5 µg/mL); in [6] it was 750 µM (≈ 99.1 µg/mL). Moreover, the minimum inhibitory concentration (MIC) in experiment [5] was 700 µM (≈ 92.5 µg/mL); in experiment [6], 750 µM (≈ 99.1 µg/mL).

In the case of `O=C(O)CN(CCN(CC(=O)O)CC(=O)O)CC(=O)O` [EDTA, diaminoethanetetraacetic acid], the Antifungal index is 10% in experiment [1] (Laetiporus sulphureus, 50 μg/ml, Example 5) and 90% in [3] (Lenzites betulina, Example 5).

Consider `C=CCc1ccc(O)c(OC)c1` [Eugenol, eugenol], for which the “Antifungal index (%)” value is on record as 100 ± 0.0^a % in experiment [1] (setting [12]); 100% in [1] (L. sulphureus, 100 μg/ml, Table 4, mean ± SE (n = 5), listed as eugenol); 100 ± 0.0^a % in experiment [3] (setting [17]); 100% in experiment [3] (L. betulina, 100 μg/ml, Table 4, mean ± SE (n = 5), listed as eugenol). The values for the 90% effect concentration (IC90) in [1] (setting [13]) and in experiment [3] (setting [18]) were 520 ± 10 µM and 650 ± 50 µM, respectively. Besides, the IC50 came out at 250 µM in experiment [1] (setting [14]) and 370 µM in experiment [3] (setting [19]). The Antifungal index in experiment [1] (setting [15]) was 24%. Further, the “MFC” value in [5] worked out at 650 µM (≈ 107 µg/mL); in experiment [6], 700 µM (≈ 115 µg/mL). For the same molecule, the results for the “MIC” value in [5] and in experiment [6] were 650 µM (≈ 107 µg/mL) and 700 µM (≈ 115 µg/mL), respectively.

For `CCCC1COC(Cn2cncn2)(c2ccc(Cl)cc2Cl)O1` (stereo not drawn) [Propiconazole, propiconazole], the “Antifungal index (%)” value is listed as 100 ± 0% in [1] (L. sulphureus, 1 μg/ml (propiconazole), Table 1); 100% in experiment [1] (L. sulphureus, 1 μg/ml (propiconazole), Table 1, listed as propiconazole); 100 ± 0.0^a % in experiment [1] (L. sulphureus, 1 μg/ml (propiconazole), Table 4, mean ± SE (n = 5)); “completely inhibited” in experiment [1] (L. sulphureus, 1 μg/ml (propiconazole), Table 4, mean ± SE (n = 5), listed as propiconazole); 52 ± 3.7% in [2] (1 μg/ml (propiconazole)); 100 ± 0% in experiment [3] (L. betulina, 1 μg/ml (propiconazole), Table 1). The “Antifungal index (%)” value in experiment [3] (L. betulina, 1 μg/ml (propiconazole), Table 1, listed as propiconazole) is listed as 100%; in experiment [3] (L. betulina, 1 μg/ml (propiconazole), Table 4, mean ± SE (n = 5)) it was 100 ± 0.0^a %; in experiment [3] (L. betulina, 1 μg/ml (propiconazole), Table 4, mean ± SE (n = 5), listed as propiconazole), “completely inhibited”; in experiment [4] (1 μg/ml (propiconazole)), 92 ± 0.6%.

With `CCCOC(=O)c1cc(O)c(O)c(O)c1` [Propyl gallate, propyl gallate], the “Antifungal index (%)” value in experiment [1] (setting [10]) was 0 ± 0%; in [2] (100 μg/ml) it was 2 ± 0.6%; in experiment [3] (setting [11]), 1 ± 1.9%; in experiment [4] (100 μg/ml) it was 0 ± 0%. For the same molecule, the Percent inhibition ratio was 0 ± 0% in experiment [7] (100 μg/cm^2 on filter paper); 0 ± 0% in experiment [7] (400 μg/cm^2 on filter paper); 0 ± 0% in experiment [8] (100 μg/cm^2 on filter paper); “did not show any antifungal activity” in [8] (100 μg/cm^2 on filter paper, listed as propyl gallate); 100 ± 0% in [8] (400 μg/cm^2 on filter paper); 100% in experiment [8] (400 μg/cm^2 on filter paper, listed as propyl gallate). Further, the Percent inhibition ratio in [9] (100 μg/cm^2 on filter paper) and in experiment [9] (400 μg/cm^2 on filter paper) was 0 ± 0% throughout.

Take `O=c1c(O)c(-c2ccc(O)c(O)c2)oc2cc(O)cc(O)c12` [Quercetin, quercetin]: the “Antifungal index (%)” value in [1] (setting [12]) was 0 ± 0.0^c %; in [1] (L. sulphureus, 100 μg/ml, Table 4, mean ± SE (n = 5), listed as quercetin) it was “did not express antifungal activities”; in experiment [3] (setting [17]) it was 0 ± 0.0^b %; in experiment [3] (L. betulina, 100 μg/ml, Table 4, mean ± SE (n = 5), listed as quercetin), “did not express antifungal activities”. Further, the IC90 in experiment [1] (setting [13]) and in [3] (setting [18]) was more than 100000 µM throughout. The results for the IC50 in [1] (setting [14]) and in experiment [3] (setting [19]) were 64000 ± 250 µM and more than 100000 µM, respectively.

As to catechin, the “Antifungal index (%)” value in experiment [1] (setting [12]) was 5 ± 1.8^b %; in [1] (L. sulphureus, 100 μg/ml, Table 4, mean ± SE (n = 5), listed as catechin) it was “did not express antifungal activities”; in [3] (setting [17]) it was 3 ± 1.5^b %; in experiment [3] (L. betulina, 100 μg/ml, Table 4, mean ± SE (n = 5), listed as catechin), “did not express antifungal activities”. Besides, the concentration for an effect of 90% (IC90) was 80000 ± 140 µM in [1] (setting [13]) and more than 100000 µM in experiment [3] (setting [18]). In addition, the results for the IC50 in experiment [1] (setting [14]) and in experiment [3] (setting [19]) were 40000 ± 120 µM and more than 100000 µM, respectively.

Source of the values: patent US20080132569A1, “Antifungal Compositions for Inhibiting Growth of Wood Decay Fungi and Use Thereof” (priority 2006, published 2008).
